ChEMBL document CHEMBL1146600, “Preparation of 7-substituted ginkgolide derivatives: potent platelet activating factor (PAF) receptor antagonists” (J Med Chem, 2003)

Target: Platelet-activating factor receptor (Cavia porcellus, UniProt P21556)
Assay: Displacement of [3H]-WEB 2086 from Platelet activating factor receptor (guinea pig) transgenic mouse muscle membrane

Chain of Platelet-activating factor receptor (P21556 whole entry): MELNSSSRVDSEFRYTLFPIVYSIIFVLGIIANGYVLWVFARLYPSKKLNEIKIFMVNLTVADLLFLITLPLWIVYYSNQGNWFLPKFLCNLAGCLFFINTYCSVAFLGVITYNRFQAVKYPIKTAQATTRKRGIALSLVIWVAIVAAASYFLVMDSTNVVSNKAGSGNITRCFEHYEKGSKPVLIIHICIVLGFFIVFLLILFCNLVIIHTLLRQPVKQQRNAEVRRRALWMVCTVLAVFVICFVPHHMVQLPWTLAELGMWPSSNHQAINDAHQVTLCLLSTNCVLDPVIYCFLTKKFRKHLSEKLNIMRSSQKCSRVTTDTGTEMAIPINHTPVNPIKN

SMILES | Ki [µM]
C[C@@H]1C(=O)OC2[C@H](O)C34C5OC(=O)C3(OC3OC(=O)[C@H](O)C34[C@@H](C(C)(C)C)[C@H]5Cl)[C@]21O (some centres undefined) | 0.11
CCN[C@H]1C2OC(=O)C34OC5OC(=O)[C@H](O)C5([C@H]1C(C)(C)C)C23[C@@H](O)C1OC(=O)[C@@H](C)[C@@]14O (some centres undefined) | 1.62
C[C@@H]1C(=O)O[C@H]2[C@H](O)[C@]34[C@@H]5OC(=O)[C@]3(OC3OC(=O)[C@H](O)C34C(C(C)(C)C)[C@H]5O)[C@@]12O (single isomer, unassigned) | 4.26
C[C@@H]1C(=O)OC2[C@H](O)C34C5OC(=O)C3(OC3OC(=O)[C@H](O)C34[C@@H](C(C)(C)C)[C@H]5N)[C@]21O (some centres undefined) | 8.64
C[C@@H]1C(=O)OC2[C@H](O)C34C5OC(=O)C3(OC3OC(=O)[C@H](OCc6ccccc6)C34[C@@H](C(C)(C)C)[C@H]5O)[C@]21O (some centres undefined) | 0.6
C[C@@H]1C(=O)O[C@H]2[C@H](O)[C@]34[C@@H]5OC(=O)[C@]3(OC3OC(=O)[C@H](O)C34C(C(C)(C)C)[C@@H]5O)[C@@]12O (single isomer, unassigned) | 12.6
C[C@@H]1C(=O)OC2[C@H](O)C34C5OC(=O)C3(OC3OC(=O)[C@H](OCc6ccccc6)C34[C@@H](C(C)(C)C)[C@@H]5O)[C@]21O (some centres undefined) | 1.67
C[C@@H]1C(=O)OC2[C@H](O)C34C5OC(=O)C3(OC3OC(=O)[C@H](O)C34[C@@H](C(C)(C)C)[C@H]5N=[N+]=[N-])[C@]21O (some centres undefined) | 0.55
C[C@@H]1C(=O)O[C@H]2[C@H](O)[C@@]34[C@H]5CC(C(C)(C)C)[C@]36[C@@H](OC(=O)[C@@H]6O)O[C@@]4(C(=O)O5)[C@@]12O (single isomer, unassigned) [GINKOLIDE B] | 0.88
CN[C@H]1C2OC(=O)C34OC5OC(=O)[C@H](O)C5([C@H]1C(C)(C)C)C23[C@@H](O)C1OC(=O)[C@@H](C)[C@@]14O (some centres undefined) | 0.61
C[C@@H]1C(=O)OC2[C@H](O)C34C5C[C@H](C(C)(C)C)C36C(OC(=O)[C@@H]6OCc3ccccc3)OC4(C(=O)O5)[C@]21O (some centres undefined) | 0.12
C[C@@H]1C(=O)OC2[C@H](O)C34C5OC(=O)C3(OC3OC(=O)[C@H](OCc6ccccc6)C34[C@@H](C(C)(C)C)[C@H]5F)[C@]21O (some centres undefined) | 0.1
CC(=O)O[C@H]1C2OC(=O)C34OC5OC(=O)[C@H](O)C5([C@H]1C(C)(C)C)C23[C@@H](O)C1OC(=O)[C@@H](C)[C@@]14O (some centres undefined) | 7.84
C[C@@H]1C(=O)OC2[C@H](O)C34C5OC(=O)C3(OC3OC(=O)[C@H](O)C34[C@@H](C(C)(C)C)[C@H]5F)[C@]21O (some centres undefined) | 0.99
